Details: PAMPA

CC(=O)CC(c1ccccc1)c1c(O)c2ccccc2oc1=O (stereo not shown) [Warfarin, warfarin]
Log (Pe): −4.95

From PMC3149900 (Chemical biology & drug design, 2010)
